Measured values taken from article PMC10353390, “Biological and Structural Analyses of New Potent Allosteric Inhibitors of HIV-1 Integrase” (Antimicrobial Agents and Chemotherapy, 2023).

Legend:
HIV-1 IN = molecular target: T1, HIV-1 IN (Human immunodeficiency virus type 1 group M subtype B, UniProt P12497); assay: HTRF IN multimerization assay; type: biochemical; conditions: mean ± SD
T1 construct: made in house
Source text: A key property of INLAIs is the ability to promote HIV-1 IN homo-multimerization ([39][–][42]). […] The maximal signal (plateau) in our IN aggregation assay corresponds to the highest HTRF signal increase under saturating INLAI concentration, relative to baseline level. Thus, MUT916, MUT884, MUT871, and MUT872 increased HIV-1 IN aggregation 3.7 to 4.4-fold, while BDM-2, BI-224436, and S-I-82 did so 5 to 6-fold (Table 1).

HXB2 HIV-1 strain = assay: Multiple-round infection assay in MT4 cells, HXB2; type: cell-based; conditions: Human immunodeficiency virus 1, HXB2; multiple-round infection, MT4 cells; mean ± SD, n > 5; read-out: EC50 HXB2
Description: Antiretroviral activity of BDM-2 and its analogs was first evaluated in lymphoblastoid cell line MT4 and in primary human T lymphocytes using NL4-3 and HXB2 laboratory HIV-1 isolates.
(§1) MT4 cells growing exponentially at the density of 10^6/mL were infected with HIV-1 strain NL4-3 at a multiplicity of infection (MOI) of 0.001 for 2 h in the presence of different concentrations of compounds, and the CellTiter-Glo luminescent reagent (Promega) was used to quantify cell viability as described previously ([12]).

NL4-3 HIV-1 strain = assay: Multiple-round infection assay in MT4 cells, NL4-3; type: cell-based; conditions: MT4 cells
[1] = Cytotoxicity assay in MT4 cells; type: cell-based; conditions: human, MT4 cells (proliferating human T-cell line), CellTiter-Glo
Source text: Growth inhibition was monitored in a proliferating human T-cell line (MT4) with different concentrations of compounds, using the CellTiter-Glo luminescent reagent (Promega), as previously described ([12]).

[2] = test system: VSV-G-pseudotyped NL4-3Δenv-luc; assay: microbe, parasite or virus in culture; type: cell-based, HIV-1
[3] = test system: recombinant NL4-3 viruses with polymorphisms at IN positions 124 and 125; assay: Multiple-round infection of MT4 cells with recombinant NL4-3 viruses polymorphic at IN positions 124 and 125; type: cell-based, HIV-1
Source text: Located on the HIV-1 IN CCD dimerization interface, the principal INLAI binding pocket overlaps with a hot spot of amino acid sequence polymorphism involving IN residues 124 and 125 ([16]). To test if the new INLAIs maintained antiviral activity against major polymorphisms, we introduced all major combinations of residues found in circulating HIV-1 strains at positions 124 and 125 into NL4-3 HIV-1 molecular clone. In total, we evaluated 15 such combinations that collectively covered 98% of all HIV-1 clade polymorphisms involving these positions ([48]). To gauge effects on the antiviral activity, we calculated the EC50 fold change (FC) relative to wild type NL4-3 HIV-1 strain that features Thr124 and Thr125 (TT; specific polymorphisms are referred to by a single letter amino acid code).
as §1

[4] = test system: primary HIV-1 isolates with polymorphisms at IN positions 124 and 125; assay: Multiple-round infection of MT4 cells with primary HIV-1 isolates polymorphic at IN positions 124 and 125; type: cell-based; conditions: primary isolate
Description: Next, we evaluated the potency of the BDM-2 series of INLAIs against several primary HIV-1 isolates with polymorphisms at IN positions 124 and 125.
as §1

[5] = test system: HIV-1 strains resistant to INSTIs, NRTIs, NNRTIs or PIs; type: cell-based
In short: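 NL4-3-based recombinant mutants and drug-resistant clinical isolates; exponentially growing MT4 cells (10^6/mL) infected at MOI 0.001 for 2 h with compound at varying concentrations. Protection quantified as cell viability by CellTiter-Glo luminescence.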

[6] = test system: NL4-3 HIV-1 with INLAI-selected IN single point mutations; type: cell-based
[7] = molecular target: HIV-1 IN-LEDGF/p75 interaction (Human immunodeficiency virus type 1 group M subtype B, UniProt P12497); assay: biochemical
[8] = molecular target: CCD of HIV-1 IN and IBD of LEDGF/p75 (Human immunodeficiency virus type 1 group M subtype B, UniProt P12497); assay: biochemical
Description: The INLAIs were tested for the ability to inhibit the HIV-1 IN-LEDGF/p75 interaction in a homogeneous time-resolved fluorescence (HTRF) assay. Our assays used either full-length IN and LEDGF/p75 proteins or their respective minimally sufficient interaction domains: the CCD of HIV-1 IN and the IBD of LEDGF/p75 (Table 1).
HTRF-based CCD-IBD interaction, IN-LEDGF/p75 interaction and IN multimerization assays were performed as described previously ([12]).

[9] = INSTI-resistant, NL4-3 background

Cc1ccc(C2CC2)c(-c2cc(F)c3c(c2C)CCCO3)c1[C@H](OC1CC1)C(=O)O [MUT916]
AC50 (HIV-1 IN; concentration for 50% maximum activation of multimerization): 22 ± 2 nM
IN multimerization Plateau (HIV-1 IN; maximum multimerization reached versus baseline): 370 ± 60%
EC50 (HXB2 HIV-1 strain): 8.8 ± 0.8 nM
EC90 (NL4-3 HIV-1 strain; Human immunodeficiency virus 1, NL43, multiple-round infection, from dose response curves, read-out: EC90 NL4-3): 30 ± 15 nM
EC50 (NL4-3 HIV-1 strain; Human immunodeficiency virus 1, NL43, multiple-round infection, mean ± SD, n > 5, read-out: EC50 NL4-3): 20 ± 9 nM
Selectivity index CC50/EC50 NL4-3 (NL4-3 HIV-1 strain): 3,900
CC50 [1]: 78000 ± 6000 nM
EC50 ratio (single/multiple-round infection) [2]: 105
EC50 ([2]; Human immunodeficiency virus 1, NL43, MT4, read-out: EC50 in single-round infection): 2100 ± 200 nM
Fold change in EC50 relative to parental NL4-3, AA ([3]; recombinant NL4-3, IN 124/125 AA): 1
Fold change in EC50 relative to parental NL4-3, AM ([3]; recombinant NL4-3, IN 124/125 AM): 0.2
Fold change in EC50 relative to parental NL4-3, AT ([3]; recombinant NL4-3, IN 124/125 AT): 0.5
Fold change in EC50 relative to parental NL4-3, AV ([3]; recombinant NL4-3, IN 124/125 AV): 0.4
Fold change in EC50 relative to parental NL4-3, GA ([3]; recombinant NL4-3, IN 124/125 GA): 1
Fold change in EC50 relative to parental NL4-3, GT ([3]; recombinant NL4-3, IN 124/125 GT): 1
Fold change in EC50 relative to parental NL4-3, NA ([3]; recombinant NL4-3, IN 124/125 NA): 4
Fold change in EC50 relative to parental NL4-3, NT ([3]; recombinant NL4-3, IN 124/125 NT): 1
Fold change in EC50 relative to parental NL4-3, NV ([3]; recombinant NL4-3, IN 124/125 NV): 0.4
Fold change in EC50 relative to parental NL4-3, SA ([3]; recombinant NL4-3, IN 124/125 SA): 1
Fold change in EC50 relative to parental NL4-3, ST ([3]; recombinant NL4-3, IN 124/125 ST): 1
Fold change in EC50 relative to parental NL4-3, TA ([3]; recombinant NL4-3, IN 124/125 TA): 1
Fold change in EC50 relative to parental NL4-3, TM ([3]; recombinant NL4-3, IN 124/125 TM): 0.2
Fold change in EC50 relative to parental NL4-3, TV ([3]; recombinant NL4-3, IN 124/125 TV): 0.4
Fold change in EC50 relative to parental NL4-3, CAM2BBY (CRF02) ([4]; IN 124/125 AA): 1
Fold change in EC50 relative to parental NL4-3, E0836M4 (D) ([4]; IN 124/125 AA): 1
Fold change in EC50 relative to parental NL4-3, KER2008 (A) ([4]; IN 124/125 AA): 1
Fold change in EC50 relative to parental NL4-3, NP1525 (CRF01) ([4]; IN 124/125 AA): 1
Fold change in EC50 relative to parental NL4-3, NP1695 (CRF02) ([4]; IN 124/125 AA): 2
Fold change in EC50 relative to parental NL4-3, TZA125 (C) ([4]; IN 124/125 AA): 0.4
Fold change in EC50 relative to parental NL4-3, KSM4030 (A) ([4]; IN 124/125 GA): 1
Fold change in EC50 relative to parental NL4-3, vGA (C) ([4]; IN 124/125 GA): 5
Fold change in EC50 relative to parental NL4-3, 99ET14 (C) ([4]; IN 124/125 NA): 2
Fold change in EC50 relative to parental NL4-3, NP1538 (B) ([4]; IN 124/125 NA): 2
Fold change in EC50 relative to parental NL4-3, vNA_1 (B) ([4]; IN 124/125 NA): 4
Fold change in EC50 relative to parental NL4-3, vNA_2 (CRF02) ([4]; IN 124/125 NA): 10
Fold change in EC50 relative to parental NL4-3, vNV (B) ([4]; IN 124/125 NV): 1
Fold change in EC50 relative to parental NL4-3, vSA_1 (B) ([4]; IN 124/125 SA): 3
Fold change in EC50 relative to parental NL4-3, vSA_2 (CRF02) ([4]; IN 124/125 SA): 4
Fold change in EC50 relative to parental NL4-3, vTA_1 (B) ([4]; IN 124/125 TA): 2
Fold change in EC50 relative to parental NL4-3, vTA_2 (CRF02) ([4]; IN 124/125 TA): 2
Fold change in EC50 relative to NL4-3, E92Q [5, 9]: 1
Fold change in EC50 relative to NL4-3, G140S [5, 9]: 1
Fold change in EC50 relative to NL4-3, G140S/Q148H [5, 9]: 1
Fold change in EC50 relative to NL4-3, N155H [5, 9]: 1
Fold change in EC50 relative to NL4-3, Q148H [5, 9]: 1
Fold change in EC50 relative to NL4-3, Y143R [5, 9]: 0.4
Fold change in EC50 relative to NL4-3, NLAY351717 ([5]; NRTI-resistant clone): 1
Fold change in EC50 relative to NL4-3, NLAY351753 ([5]; NRTI/NNRTI-resistant clone): 2
Fold change in EC50 relative to NL4-3, K103N/Y181C ([5]; NRTI/NNRTIs group, NL4-3 background): 1
Fold change in EC50 relative to NL4-3, ARP-4595 ([5]; PI-resistant virus): 2
Fold change in EC50 relative to NL4-3, ARP-4596 ([5]; PI-resistant virus): 1
Fold change in EC50 relative to NL4-3, ARP-11801 ([5]; PI-resistant virus): 2
Fold change in EC50 relative to NL4-3, ARP-11803 ([5]; PI-resistant virus): 2
Fold change in EC50 relative to NL4-3, ARP-11807 ([5]; PI-resistant virus): 2
Fold change in EC50 relative to NL4-3, ARP-11808 ([5]; PI-resistant virus): 2
EC50 fold change compared to wild type NL4-3, A128T [6]: 4
EC50 fold change compared to wild type NL4-3, H171Q [6]: 1
EC50 fold change compared to wild type NL4-3, N222K [6]: 3
EC50 fold change compared to wild type NL4-3, T174I [6]: 14
EC50 fold change compared to wild type NL4-3, Y99H [6]: 3
IC50 [7]: 46 ± 16 nM
IC50 [8]: 19 ± 8 nM
